These results are taken from patent US20240217978A1 (CHONG KUN DANG PHARMACEUTICAL CORP., priority 2021, published 2024).

Broadly, the IC50 is the concentration that inhibits the measured activity by half. The low end stands for greater potency, the high end for weaker potency.

For this test, the target named is human adenosine A2a receptor (Homo sapiens (Human), UniProt P29274). Description: A2a receptor binding affinity, [3H]-NECA radioligand binding test. The conditions noted are these: [3H]-NECA 37 nM; membrane from HEK-293 cells transfected with human adenosine A2a receptor. Put shortly: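 IC50 values (μM) come from displacement of [3H]-NECA, used at 37 nM final, on human A2a receptor membranes from transfected HEK-293 cells. Incubation lasted one hour at room temperature in Tris/MgCl2/EDTA buffer, pH 7.4; filter-bound radioactivity was counted by scintillation.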
Chain of human adenosine A2a receptor (P29274 whole entry): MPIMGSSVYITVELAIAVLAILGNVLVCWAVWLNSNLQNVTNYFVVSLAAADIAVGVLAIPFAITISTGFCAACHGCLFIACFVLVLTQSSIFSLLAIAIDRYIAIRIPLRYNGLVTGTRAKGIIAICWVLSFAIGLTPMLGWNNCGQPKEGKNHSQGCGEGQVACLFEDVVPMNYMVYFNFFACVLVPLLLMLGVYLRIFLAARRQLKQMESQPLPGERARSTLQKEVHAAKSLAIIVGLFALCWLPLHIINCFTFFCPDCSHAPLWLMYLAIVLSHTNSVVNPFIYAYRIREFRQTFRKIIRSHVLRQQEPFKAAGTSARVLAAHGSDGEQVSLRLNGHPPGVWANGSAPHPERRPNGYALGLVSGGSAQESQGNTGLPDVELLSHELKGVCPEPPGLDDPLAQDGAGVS
Take `CC(C)NC(=O)N1CCN(C(=O)[C@@H]2CCCN2c2nc(N)n3nc(-c4ccco4)nc3n2)CC1` [Example 116, 4-((7-amino-2-(furan-2-yl)-[1,2,4]triazolo[1,5-a][1,3,5]triazin-5-yl)-L-prolyl)-N-isopropylpiperazin-1-carboxamide]: the IC50 worked out at 11 nM.
In the case of `Nc1nc(N2CCC[C@H]2C(=O)N2CCC(C3CCN(CC(F)(F)F)CC3)CC2)nc2nc(-c3ccco3)nn12` [Example 206, (S)-(1-(7-amino-2-(furan-2-yl)-[1,2,4]triazolo[1,5-a][1,3,5]triazin-5-yl)pyrrolidin-2-yl)(1′-(2,2,2-trifluoroethyl)-[4,4′-bipiperidin]-1-yl)methanone] it was 1 nM.
In turn, `COCCN1CCN(C(=O)[C@@H](Nc2nc(N)n3nc(-c4ccco4)nc3n2)C(C)C)CC1` [Example 60, (S)-2-((7-amino-2-(furan-2-yl)-[1,2,4]triazolo[1,5-a][1,3,5]triazin-5-yl)amino)-1-(4-(2-methoxyethyl)piperazin-1-yl)-3-methylbutan-1-one] registered an IC50 of 18 nM.
Then `Nc1nc(N2CCC[C@H]2C(=O)N2CCN(C(=O)c3ccc(F)cc3F)CC2)nc2nc(-c3ccco3)nn12` [Example 64, (4-((7-amino-2-(furan-2-yl)-[1,2,4]triazolo[1,5-a][1,3,5]triazin-5-yl)-L-prolyl)piperazin-1-yl)(2,4-difluorophenyl)methanone], with 14 nM.
In the case of `CCCCN1CCN(C(=O)[C@@H](Nc2nc(N)n3nc(-c4ccco4)nc3n2)C2CC2)CC1` [Example 176, (S)-2-((7-amino-2-(furan-2-yl)-[1,2,4]triazolo[1,5-a][1,3,5]triazin-5-yl)amino)-1-(4-butylpiperazin-1-yl)-2-cyclopropylethan-1-one] it was 16 nM; in that of `Nc1nc(N2CCC[C@H]2C(=O)N2CCN(CC(F)(F)C(F)(F)C(F)(F)F)CC2)nc2nc(-c3ccco3)nn12` [Example 228, (S)-(1-(7-amino-2-(furan-2-yl)-[1,2,4]triazolo[1,5-a][1,3,5]triazin-5-yl)pyrrolidin-2-yl)(4-(2,2,3,3,4,4,4-heptafluorobutyl)piperazin-1-yl)methanone], 2 nM.
As to `C[C@H](Nc1nc(N)n2nc(-c3ccco3)nc2n1)C(=O)N1CCN(CC(F)(F)F)CC1` [Example 25, (S)-2-((7-amino-2-(furan-2-yl)-[1,2,4]triazolo[1,5-a][1,3,5]triazin-5-yl)amino)-1-(4-(2,2,2-trifluoroethyl)piperazin-1-yl)propan-1-one], the IC50 amounted to 10 nM.
In the case of `Nc1nc(N2CCC[C@H]2C(=O)N2CCN(C(=O)C3(C(F)(F)F)CCC3)CC2)nc2nc(-c3ccco3)nn12` [Example 75] it was 9 nM; in that of `Nc1nc(N[C@@H](Cc2ccccc2)C(=O)N2CCN(Cc3cccc(F)c3)CC2)nc2nc(-c3ccco3)nn12` [Example 17, (S)-2-((7-amino-2-(furan-2-yl)-[1,2,4]triazolo[1,5-a][1,3,5]triazin-5-yl)amino)-1-(4-(3-fluorobenzyl)piperazin-1-yl)-3-phenylpropan-1-one], 0.135 nM; in that of `Nc1nc(N2CCC[C@H]2C(=O)N2CCN(C3CCC3)CC2)nc2nc(-c3ccco3)nn12` [Example 392, (S)-(1-(7-amino-2-(furan-2-yl)-[1,2,4]triazolo[1,5-a][1,3,5]triazin-5-yl)pyrrolidin-2-yl)(4-cyclobutylpiperazin-1-yl)methanone], 9 nM.
In the case of `Cc1ccc(-c2nc3nc(N4CCC[C@H]4C(=O)N4CCN(CC(C)(C)F)CC4)nc(N)n3n2)o1` [Example 90, (S)-(1-(7-amino-2-(5-methylfuran-2-yl)-[1,2,4]triazolo[1,5-a][1,3,5]triazin-5-yl)pyrrolidin-2-yl)(4-(2-fluoro-2-methylpropyl)piperazin-1-yl)methanone] it was 8 nM.
`Nc1nc(N2CC[C@H]2C(=O)N2CCN(C(=O)c3ccccc3)CC2)nc2nc(-c3ccco3)nn12` [Example 109, (S)-(1-(7-amino-2-(furan-2-yl)-[1,2,4]triazolo[1,5-a][1,3,5]triazin-5-yl)azetidin-2-yl)(4-benzoylpiperazin-1-yl)methanone]: the IC50 was determined as 13 nM.
In the case of `Nc1nc(N2CCC[C@H]2C(=O)N2CCC3(CC2)CN(C(=O)Nc2ccccc2)C3)nc2nc(-c3ccco3)nn12` [Example 183, 7-((7-amino-2-(furan-2-yl)-[1,2,4]triazolo[1,5-a][1,3,5]triazin-5-yl)-L-prolyl)-N-phenyl-2,7-diazaspiro[3.5]nonane-2-carboxamide] it was 2 nM.
Then `CC(C)(F)CN1CCC(C2CCN(C(=O)[C@@H]3CCCN3c3cc4nc(-c5ccco5)nn4c(N)n3)CC2)CC1` [Example 395, (S)-(1-(5-amino-2-(furan-2-yl)-[1,2,4]triazolo[1,5-c]pyrimidin-7-yl)pyrrolidin-2-yl)(1′-(2-fluoro-2-methylpropyl)-[4,4′-bipiperidin]-1-yl)methanone], with 18 nM; and `CC(C)(C)C1CCC(N2CCN(C(=O)[C@@H]3CCCN3c3nc(N)n4nc(-c5ccco5)nc4n3)CC2)CC1` (stereo partly drawn) [Example 154, (S)-(1-(7-amino-2-(furan-2-yl)-[1,2,4]triazolo[1,5-a][1,3,5]triazin-5-yl)pyrrolidin-2-yl)(4-(4-(tert-butyl)cyclohexyl)piperazin-1-yl)methanone], with 10 nM; and `Nc1nc(N[C@H](C(=O)N2CCN(c3nccs3)CC2)C2CCOCC2)nc2nc(-c3ccco3)nn12` [Example 249, (S)-2-((7-amino-2-(furan-2-yl)-[1,2,4]triazolo[1,5-a][1,3,5]triazin-5-yl)amino)-2-(tetrahydro-2H-pyran-4-yl)-1-(4-(thiazol-2-yl)piperazin-1-yl)ethan-1-one], with 9 nM.
In the case of `CCCCCCN1CCN(C(=O)[C@@H]2CCCN2c2nc(N)n3nc(-c4ccco4)nc3n2)CC1` [Example 301, (S)-(1-(7-amino-2-(furan-2-yl)-[1,2,4]triazolo[1,5-a][1,3,5]triazin-5-yl)pyrrolidin-2-yl)(4-hexylpiperazin-1-yl)methanone] it was 3 nM.
In the case of `CCC[C@H](Nc1nc(N)n2nc(-c3ccco3)nc2n1)C(=O)N1CCN(CC(F)(F)F)CC1` [Example 212, (S)-2-((7-amino-2-(furan-2-yl)-[1,2,4]triazolo[1,5-a][1,3,5]triazin-5-yl)amino)-1-(4-(2,2,2-trifluoroethyl)piperazin-1-yl)pentan-1-one], the IC50 worked out at 12 nM.
In the case of `Nc1nc(N2CCC[C@H]2C(=O)N2C3CCC2CN(C(=O)c2ccccc2)C3)nc2nc(-c3ccco3)nn12` [Example 158, (8-((7-amino-2-(furan-2-yl)-[1,2,4]triazolo[1,5-a][1,3,5]triazin-5-yl)-L-prolyl)-3,8-diazabicyclo[3.2.1]octan-3-yl)(phenyl)methanone], the IC50 was found to be 12 nM.
In the case of `COC[C@H](Nc1nc(N)n2nc(-c3ccco3)nc2n1)C(=O)N1CCN(c2nccs2)CC1` [Example 305, (S)-2-((7-amino-2-(furan-2-yl)-[1,2,4]triazolo[1,5-a][1,3,5]triazin-5-yl)amino)-3-methoxy-1-(4-(thiazol-2-yl)piperazin-1-yl)propan-1-one], the IC50 worked out at 16 nM.
In the case of `C[C@@H]1CN(CC(C)(F)F)CCN1C(=O)[C@@H]1CCCN1c1nc(N)n2nc(-c3ccco3)nc2n1` [Example 372, ((S)-1-(7-amino-2-(furan-2-yl)-[1,2,4]triazolo[1,5-a][1,3,5]triazin-5-yl)pyrrolidin-2-yl)((R)-4-(2,2-difluoropropyl)-2-methylpiperazin-1-yl) methanone] it was 1 nM; in that of `Nc1nc(N2CCC[C@H]2C(=O)N2CCN(Cc3ccc(F)cc3F)CC2)nc2oc(-c3ccco3)nc12` [Example 41, (S)-(1-(7-amino-2-(furan-2-yl)oxazolo[5,4-d]pyrimidin-5-yl)pyrrolidin-2-yl)(4-(2,4-difluorobenzyl)piperazin-1-yl)methanone], 13 nM.
As to `Nc1nc(N2CC[C@H]2C(=O)N2CCC(C3CCN(CC(F)F)CC3)CC2)cc2nc(-c3ccco3)nn12` [Example 378, (S)-(1-(5-amino-2-(furan-2-yl)-[1,2,4]triazolo[1,5-c]pyrimidin-7-yl)azetidin-2-yl)(1′-(2,2-difluoroethyl)-[4,4′-bipiperidin]-1-yl)methanone], the IC50 came to 0.7 nM.
Compound `CC(C)(O)CN1CCN(C(=O)[C@@H]2CCN2c2nc(N)n3nc(-c4ccco4)nc3n2)CC1` [Example 350, (S)-(1-(7-amino-2-(furan-2-yl)-[1,2,4]triazolo[1,5-a][1,3,5]triazin-5-yl)azetidin-2-yl)(4-(2-hydroxy-2-methylpropyl)piperazin-1-yl)methanone] displayed an IC50 of 9 nM.
In the case of `Nc1nc(N2CCC[C@H]2C(=O)N2CCN(c3ccc(F)cc3)C(=O)C2)nc2nc(-c3ccco3)nn12` [Example 236, 4-((7-amino-2-(furan-2-yl)-[1,2,4]triazolo[1,5-a][1,3,5]triazin-5-yl)-L-prolyl)-1-(4-fluorophenyl)piperazin-2-one] it was 2 nM.
In the case of `CC(C)[C@H](Nc1nc(N)n2nc(-c3ccco3)nc2n1)C(=O)N1CCN(CC(C)(C)O)CC1` [Example 351, (S)-2-((7-amino-2-(furan-2-yl)-[1,2,4]triazolo[1,5-a][1,3,5]triazin-5-yl)amino)-1-(4-(2-hydroxy-2-methylpropyl)piperazin-1-yl)-3-methylbutan-1-one] it was 17 nM; in that of `C[C@H](Nc1nc(N)n2nc(-c3ccco3)nc2n1)C(=O)N1CCN(Cc2ccccc2F)CC1` [Example 22, (S)-2-((7-amino-2-(furan-2-yl)-[1,2,4]triazolo[1,5-a][1,3,5]triazin-5-yl)amino)-1-(4-(2-fluorobenzyl)piperazin-1-yl)propan-1-one], 11 nM.
In the case of `Nc1nc(N2CCC[C@H]2C(=O)N2CCN(CC3(F)CCOCC3)CC2)nc2nc(-c3ccco3)nn12` [Example 389, (S)-(1-(7-amino-2-(furan-2-yl)-[1,2,4]triazolo[1,5-a][1,3,5]triazin-5-yl)pyrrolidin-2-yl)(4-((4-fluorotetrahydro-2H-pyran-4-yl)methyl)piperazin-1-yl)methanone] it was 7 nM.
